This is an account of results in BindingDB's records for doi:10.7270/Q2GH9GBT (Nmmlsc, 2008).

Structures can show the parent of a compound that is named as a salt.

The target of one experiment is T1, Bcl-2-like protein 10 [11-204] (Homo sapiens, UniProt Q9HD36).
T1 construct: 11-204
T1 sequence (Q9HD36 whole entry): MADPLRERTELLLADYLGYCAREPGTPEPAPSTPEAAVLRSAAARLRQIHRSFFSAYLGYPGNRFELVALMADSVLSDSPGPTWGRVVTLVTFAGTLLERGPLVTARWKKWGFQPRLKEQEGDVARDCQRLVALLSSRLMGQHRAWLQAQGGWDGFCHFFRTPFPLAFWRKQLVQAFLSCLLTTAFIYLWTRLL
Kind of experiment: modulators of Bcl-B/Bim peptide interaction – biochemical, multiplexed, bead-based flow cytometry, human, dose response (AID 1327).
Conditions: not given
Usually EC50 stands for the concentration needed to bring the measured effect to its halfway point. Lower therefore signals higher potency in that assay. The compound `Nc1ccc(N2CCN(CCCCN3C(=O)C4CCCN4C3=O)CC2)cc1` (stereo unspecified) [2-[4-[4-(4-aminophenyl)-1-piperazinyl]butyl]-5,6,7,7a-tetrahydropyrrolo[1,2-c]imidazole-1,3-dione;hydrate;hydrochloride] gave an EC50 of 52.5 µM.

`Clc1nc(NCc2cccnc2)nc(N2CCOCC2)n1` [MLS000121154] returned an EC50 of 8.51 µM. This EC50 is about 6.2-fold lower than that of the compound before.

The compound `CN(C)[C@@H]1C(=O)C(C(=O)NCN2CCCC2)C(=O)[C@@]2(O)C(=O)C3C(=O)c4c(O)cccc4[C@@](C)(O)C3CC12` (stereo partly drawn) [(2Z,4S,6S,12aS)-4-(dimethylamino)-6,10,11,12a-tetrahydroxy-2-[hydroxy-(1-pyrrolidinylmethylamino)methylidene]-6-methyl-4,4a,5,5a-tetrahydrotetracene-1,3,12-trione] returned an EC50 of 14.3 µM.

`Cc1cccc(OCC(=O)NCC(=O)NN=Cc2cc(Br)ccc2OCc2ccccc2)c1` [N-[(5-bromanyl-2-phenylmethoxy-phenyl)methylideneamino]-2-[2-(3-methylphenoxy)ethanoylamino]ethanamide] displayed an EC50 of 5.53 µM. This EC50 is about 2.6-fold lower than that of the compound before.

In turn, `Cc1cc(N)ccc1N1CCCC1` [3-methyl-4-(1-pyrrolidinyl)aniline;hydrochloride] came in with an EC50 of 2.13 µM.

Turning to `COc1cccc(CN=Nc2nn3cnnc3c3ccccc23)c1` [N-[1-(3-Methoxy-phenyl)-meth-(E)-ylidene]-N'-[1,2,4]triazolo[3,4-a]phthalazin-6-yl-hydrazine], a half-maximal effect (EC50) was put at 0.98 µM.

`COc1ccccc1Nc1nc(-c2c(C)nc3ncccn23)cs1` [(2-methoxyphenyl)-[4-(2-methylimidazo[1,2-a]pyrimidin-3-yl)thiazol-2-yl]amine;hydrobromide] registered an EC50 of 0.82 µM.

Consider `Clc1ccc2c(N=NCc3ccc(Br)cc3)ccnc2c1` [N-[(4-bromophenyl)methylideneamino]-7-chloranyl-quinolin-4-amine], for which the EC50 was found to be 20.9 µM.

`O=S1(=O)N=C(N(CCO)N=Cc2ccncc2)c2ccccc21` [MLS000682942] returned an EC50 of 11.8 µM.

`OCCN1CCN(CCCc2c3c(cc4c2CCC4)CCC3)CC1` [MLS000698424] displayed an EC50 of 15.5 µM.

Compound `Cc1nc2ncccn2c1-c1csc(Nc2ccc(O)cc2)n1` came in with an EC50 of 0.12 µM.

For the compound `COc1ccc(CC(=O)Nc2ccc(-c3nc4cc(C)ccc4o3)c(O)c2)cc1OC` [2-(3,4-dimethoxyphenyl)-N-[(4Z)-3-keto-4-(5-methyl-3H-1,3-benzoxazol-2-ylidene)cyclohexa-1,5-dien-1-yl]acetamide], the EC50 was determined as 14.8 µM.

Consider `Clc1ccc2c(N=NCc3ccccc3Br)ccnc2c1` [MLS000336087], for which the midpoint of the response, the EC50, lay at 9.57 µM.

Regarding `COc1ccccc1Cn1nnc2c(=O)[nH]c(C3CCN(C(=O)c4ccc(C)cc4)CC3)nc21` [3-[(2-methoxyphenyl)methyl]-5-[1-(4-methylphenyl)carbonylpiperidin-4-yl]-2H-[1,2,3]triazolo[4,5-d]pyrimidin-7-one], the EC50 stood at 12.2 µM.

In the case of `COc1cccc2c(SCC(=O)NN=Cc3ccc(O)cc3O)cc(C)nc12` [N'-[(E)-(2-hydroxy-4-oxo-1-cyclohexa-2,5-dienylidene)methyl]-2-[(8-methoxy-2-methyl-4-quinolinyl)thio]acetohydrazide], the EC50 is 9.13 µM.

Consider `COc1cc(CN=Nc2nn3cnnc3c3ccccc23)ccc1O` [(4E)-2-methoxy-4-[[2-([1,2,4]triazolo[3,4-a]phthalazin-6-yl)hydrazinyl]methylidene]cyclohexa-2,5-dien-1-one], for which the EC50 was determined as 1.07 µM.

Compound `Clc1nc2ccccc2cc1CN=Nc1nc2ccccc2[nH]1` [SMR000221568] returned an EC50 of 35.7 µM.

In the case of `COc1cc(C=NNC(=O)CN(Cc2ccco2)S(=O)(=O)c2ccccc2)ccc1O` [N-(2-furanylmethyl)-N-[2-[[(E)-(3-methoxy-4-oxo-1-cyclohexa-2,5-dienylidene)methyl]hydrazo]-2-oxoethyl]benzenesulfonamide], a half-maximal effect (EC50) was put at 7.81 µM.

Still in this experiment, the particulars now being: inactive by the depositor's call.
`Cc1ccc(C=NN(C)C2=NS(=O)(=O)c3ccccc32)o1` [N-methyl-N-[(5-methyl-2-furanyl)methylideneamino]-1,1-dioxo-1,2-benzothiazol-3-amine] displayed an EC50 of 7.38 µM.

Turning to `COc1ccc(C2=Nn3c(nnc3-c3ccco3)SC2)cc1OC` [6-(3,4-Dimethoxy-phenyl)-3-furan-2-yl-7H-[1,2,4]triazolo[3,4-b][1,3,4]thiadiazine], the midpoint of the response, the EC50, lay at 1.15 µM.

In turn, `O=C(CSc1ccc2nnc(-c3ccccn3)n2n1)Nc1nccs1` [2-[[3-(2-pyridinyl)-[1,2,4]triazolo[4,3-b]pyridazin-6-yl]thio]-N-(2-thiazolyl)acetamide] had an EC50 of 5.54 µM.

`Cc1nnc2ccc(-c3cccc(NC(=O)c4ccco4)c3)nn12` [SMR000324305]: a half-maximal effect (EC50) was put at 3.53 µM.

Turning to `O=C(NCc1ccccc1)c1ccc2nc(-c3ccco3)c(-c3ccco3)nc2c1` [2,3-bis(furan-2-yl)-N-(phenylmethyl)quinoxaline-6-carboxamide], a half-maximal effect (EC50) was put at 20.6 µM.

The compound `c1ccc(-c2nc(N3CCCCCC3)c3ccccc3n2)nc1` [SMR000046752] yielded an EC50 of 16.7 µM. This EC50 and that of the compound before are within 1.5-fold of each other.

Compound `O=C(Nc1ccc2nc(-c3ccco3)c(-c3ccco3)nc2c1)N1CCCCCC1` had an EC50 of 33.3 µM.

`C#CCn1cc(C=C2C(=O)c3ccccc3C2=O)c2ccccc21` [SMR000196125] displayed an EC50 of 17.8 µM.

Take `COc1ccccc1-n1c(-c2ccccc2)c[nH]c1=S` [MLS001007615]: it took 32.1 µM to reach a half-maximal effect (EC50).

In turn, `Cc1nc2ncccn2c1-c1csc(Nc2ccccc2)n1` [4-(2-methyl-3-imidazo[1,2-a]pyrimidinyl)-N-phenyl-2-thiazolamine] showed an EC50 of 1.38 µM.

In turn, `CN(N=Cc1cccnc1)C1=NS(=O)(=O)c2ccccc21` [SMR000207578] came in with an EC50 of 20 µM.

On to `CCOC(=O)C1CCN(C(=O)Nc2ccc3nc(-c4ccco4)c(-c4ccco4)nc3c2)CC1` [MLS000113285], for which the EC50 is 46.4 µM.

In the case of `CC(=O)c1ccc(NC(=O)c2ccc3nc(-c4ccco4)c(-c4ccco4)nc3c2)cc1` [N-(4-acetylphenyl)-2,3-di-2-furyl-6-quinoxalinecarboxamide], the EC50 was 33.7 µM. This EC50 and that of the compound before are within 1.5-fold of each other.

`Nc1c(C(=O)NC2CC2)sc2nc3c(c(-c4ccco4)c12)CC/C3=C/c1ccco1` [SMR000259554] gave an EC50 of 10.4 µM. Against the preceding compound, the EC50 is about 3.2-fold lower.

On to `CN(N=Cc1ccncc1)C1=NS(=O)(=O)c2ccccc21` [isonicotinaldehyde (1,1-dioxido-1,2-benzisothiazol-3-yl)(methyl)hydrazone], for which the EC50 is 1.82 µM.

`CCOC(=O)c1c(O)nc2ccc(Cl)c3c2c1-c1ccccc1C3=O` [MLS000704595]: it took 1.32 µM to reach a half-maximal effect (EC50).

For `O=C(Nc1ccncc1)c1cc2ccccc2o1` [MLS000109378], a half-maximal response (EC50) required 62.1 µM. This EC50 is about 47-fold higher than that of the compound before.

On to `Cc1ccc(OCc2cn3cccnc3n2)cc1` [MLS000723172], for which a half-maximal effect (EC50) was put at 30.6 µM.

`O=C(Nc1cccc(Cl)c1)Nc1ccnc(-c2cccnc2)n1` [SMR000337179] returned an EC50 of 1.11 µM.

Compound `O=C1NC(=O)C2(Cc3c(nc4ccccn4c3=O)N3CCCCCC32)C(=O)N1Cc1ccccc1` (stereo unspecified) [MLS000083668] showed an EC50 of 18.2 µM. Against the preceding compound, the EC50 is about 16-fold higher.

In turn, `CCOC(=O)c1ccc(Nc2nc(C(=O)OCC)nc3ccccc23)cc1` had an EC50 of 2.18 µM.

As to `COCCCn1c(N)c(C(=O)Nc2sc3c(c2C(=O)OC)CCCC3)c2nc3ccccc3nc21` [MLS000595323], the EC50 worked out at 1.39 µM.

In turn, `O=C(Nc1ccccc1)c1ccc2nc(-c3ccco3)c(-c3ccco3)nc2c1` [2,3-di-2-furyl-N-phenyl-6-quinoxalinecarboxamide] showed an EC50 of 33.8 µM.

`CSc1nnc2c3cc(C)ccc3n(Cc3ccccc3)c2n1` [SMR000046397] showed an EC50 of 30.7 µM.

As to `COc1ccccc1-n1c(-c2ccc(Cl)cc2)c[nH]c1=S` [4-(4-chlorophenyl)-3-(2-methoxyphenyl)-1H-imidazole-2-thione], the EC50 was 11.4 µM.

`O=C(Nc1ccc2nc(-c3ccco3)c(-c3ccco3)nc2c1)NC1CC1` [SMR000118524] had an EC50 of 45.1 µM. Against the preceding compound, the EC50 is about 4-fold higher.

Compound `Cc1ccc(C)n1-c1cccc(C(=O)O)c1` came in with an EC50 of 49.5 µM. This EC50 and that of the compound before are within 1.5-fold of each other.

Consider `CCOC(=O)c1c2c3c(cccc3[nH]c1=O)C(=O)c1ccccc1-2`, for which a half-maximal effect (EC50) was put at 3.53 µM.

As for `CCOCCCn1c(N)c(C(=O)Nc2sc3c(c2C(=O)OC)CCCC3)c2nc3ccccc3nc21`, the midpoint of the response, the EC50, lay at 1.28 µM. This EC50 is about 2.8-fold lower than that of the compound before.

In turn, `COc1ccc(OC)c(-n2c(=O)c3ccccc3c3ccccc3c2=O)c1` [SMR000236434] had a 50% effective concentration (EC50) of 16.4 µM.

In turn, `Cc1cccc(C=NN(CCO)C2=NS(=O)(=O)c3ccccc32)c1` [2-[(1,1-dioxo-1,2-benzothiazol-3-yl)-[(3-methylphenyl)methylideneamino]amino]ethanol] returned an EC50 of 38.7 µM.

`COc1ccc(C2=Nn3c(nnc3-c3ccccn3)SC2)cc1OC` [6-(3,4-dimethoxyphenyl)-3-(2-pyridinyl)-7H-[1,2,4]triazolo[3,4-b][1,3,4]thiadiazine] showed an EC50 of 6.18 µM.

`Cc1ccnc(SCc2cc(=O)c(OC(=O)c3ccc(Cl)c([N+](=O)[O-])c3)co2)n1` [MLS000696790] gave an EC50 of 6.62 µM. This EC50 and that of the compound before are within 1.5-fold of each other.

Consider `O=C(COc1ccccc1)N1CCN(c2ncnc3c2cnn3-c2ccccc2)CC1` [2-Phenoxy-1-[4-(1-phenyl-1H-pyrazolo[3,4-d]pyrimidin-4-yl)-piperazin-1-yl]-ethanone], for which the 50% effective concentration (EC50) was 19.2 µM. This EC50 lies about 2.9-fold higher than the previous one.

Compound `CCN(CC)c1ccc(-c2nn3c(-c4ccccc4OC)nnc3s2)cc1` had an EC50 of 21.7 µM.

`Nc1c(C(=O)NCC2CCCO2)sc2nc3c(c(-c4ccco4)c12)CC/C3=C\c1ccco1` (stereo unspecified) [SMR000259502] had an EC50 of 13.7 µM.

`O=C(NCCCN1CCN(CCCNC(=O)c2cc([N+](=O)[O-])ccc2Cl)CC1)c1cc([N+](=O)[O-])ccc1Cl` [2-chloranyl-N-[3-[4-[3-[(2-chloranyl-5-nitro-phenyl)carbonylamino]propyl]piperazin-1-yl]propyl]-5-nitro-benzamide] returned an EC50 of 43.4 µM. Compared with the last compound, the EC50 is about 3.2-fold higher.

Consider `Cc1cc(C)nc(SCc2cc(=O)c(OC(=O)c3ccc(Cl)c([N+](=O)[O-])c3)co2)n1` [4-chloro-3-nitrobenzoic acid [6-[[(4,6-dimethyl-2-pyrimidinyl)thio]methyl]-4-oxo-3-pyranyl] ester], for which it took 1.51 µM to reach a half-maximal effect (EC50).
